In US20250243220A1, “ATR INHIBITORS” (APREA THERAPEUTICS, INC., priority 2022, published 2025):

How the values were obtained:
Type in all cases: cell-based
HCT116 Bcl/xl = experiment: IC50 assay by Western blot (APH-treated cells), HCT116 Bcl/xl; conditions: for IC50: Homo sapiens, HCT-116
Description: (§1) E. Treatment of Cells for IC50 Assay by Western Blot
(§2) The compound is stored as a 1 mM stock solution prepared in accordance with the Receipt of Compound SOP. The stock solution is diluted in cell media in two separate 1:10 dilution series.
(§3) 1. Arrange twelve 15-mL centrifuge tubes in a rack in two series and label them in accordance with Dilutions Series 1 and Dilution Series 2 shown in Table 1 and Table 2, respectively.
(§4) 2. Place 2.5 mL of prewarmed cell media in each of the […]. Place 2.25 mL of prewarmed cell media in the remaining tubes.
(§5) 3. Add 7.5 μL of 1 mM compound stock solution in the 3 μM tube. Mix well.
(§6) 4. Add 2.5 μL of 1 mM compound stock solution in the 1 μM tube. Mix well.
(§7) 5. For each series (separately), remove 250 μL from the leftmost tube and transfer to the next tube to the right. Repeat for each tube until the series is complete.
(§8) 6. Set aside the 1 μM tube, the 3 μM tube, and the 300 nM tube for discard.
(§9) 7. The cells to be treated will be in 6-well plates labeled by cell line. Remove the cells from the incubator and label the wells with the dosages to be administered.
(§10) 8. Arrange the dilution tubes in the rack in a manner that reflects the 6-well plate arrangement so as to avoid confusion when administering the dosage solutions to the appropriate wells.
(§11) 9. Aspirate the three wells in the top row of the first plate (labeled NT, APH+, and APH+) and replace with 2 mL fresh media (without drug compound).
(§12) 10. Aspirate the three wells in the bottom row of the first plate and replace each well with 2 mL of solution from the appropriate tube.
(§13) 11. Repeat step 10 for the next row of wells (top row second plate). and then for the final row of wells (bottom row second plate).
(§14) 12. Place both plates into the incubator for 30 minutes.
(§15) 13. After 30 minutes have elapsed, remove the plates from the incubator.
(§16) 14. Acquire stock solution of APH (5 mM) and add 2 μL of the APH stock solution to the center of each well except the well labeled NT.
(§17) 15. Swirl the plates carefully and gently to diffuse the APH throughout each well.
(§18) 16. Place the plates back in the incubator for 4 hours, at which point the cells will be harvested for analysis.
(§19) 17. Twenty minutes before harvesting (or 3 hours and 40 minutes after administration of APH), turn on a heat block suitable to heat Eppendorf tubes. Set the temperature to 95° C.
(§20) 18. Set up a number of Eppendorf tubes equal to the number of wells treated (i.e., twelve per two-plate drug administration), and label each tube with cell line, compound administered, dosage level, and date. Leave the tubes open.
(§21) 19. Add 200 mL DI water to a beaker.
(§22) 20. After 4 hours, remove treated plates from incubator.
(§23) 21. Aspirate media from all wells.
(§24) 22. Wash each well with 2 mL 1×PBS and aspirate.
(§25) 23. Sterilize vacuum line with 70% ethanol by spraying some into the nozzle while the vacuum is engaged. Shut off vacuum.
(§26) 24. Add Laemmli buffer to each well. For HCT116 Bcl/xl, OVCAR-3, and 22RV1 cells, add 300 μL per well; for OVCAR-8 and SKOV-3 cells, add 250 μL per well.
(§27) 25. Scrape the first well thoroughly. Place the scraper into the DI water between uses.
(§28) 26. Transfer the lysed cell debris mixture to the first tube carefully. The mixture will be viscous. Use a 1000-μL pipettor. Close the tube.
(§29) 27. Repeat steps 25 and 26 for each well.
(§30) 28. When all wells have been harvested, place all the tubes into the heat block. Place a weighted, heat-resistant object on top of the tubes to keep them closed.
(§31) 29. After 5 minutes, remove the tubes from the heat block and turn it off. Vortex each tube for 10 seconds. Be cautious of tubes popping open.
(§32) 30. Allow the tubes to come to room temperature and proceed to further analysis or store frozen at −20° C.

SKOV-3 = experiment: IC50 assay by Western blot (APH-treated cells), SKOV-3; conditions: SKOV-3 cells; for IC50: Homo sapiens, SK-OV-3
Description: as §1, §2, §3, §4, §5, §6, §7, §8, §9, §10, §11, §12, §13, §14, §15, §16, §17, §18, §19, §20, §21, §22, §23, §24, §25, §26, §27, §28, §29, §30, §31, §32

MEC (+APH) = experiment: MEC (+APH)
22RV1 = experiment: IC50 assay by Western blot (APH-treated cells), 22RV1; conditions: 22RV1 cells; for IC50: Homo sapiens
Description: as §1, §2, §3, §4, §5, §6, §7, §8, §9, §10, §11, §12, §13, §14, §15, §16, §17, §18, §19, §20, §21, §22, §23, §24, §25, §26, §27, §28, §29, §30, §31, §32

OVCAR-3 = experiment: IC50 assay by Western blot (APH-treated cells), OVCAR-3; conditions: OVCAR-3 cells; for IC50: Homo sapiens
Description: as §1, §2, §3, §4, §5, §6, §7, §8, §9, §10, §11, §12, §13, §14, §15, §16, §17, §18, §19, §20, §21, §22, §23, §24, §25, §26, §27, §28, §29, §30, §31, §32

OVCAR-8 = experiment: IC50 assay by Western blot (APH-treated cells), OVCAR-8; conditions: OVCAR-8 cells; for IC50: Homo sapiens
Description: as §1, §2, §3, §4, §5, §6, §7, §8, §9, §10, §11, §12, §13, §14, §15, §16, §17, §18, §19, §20, §21, §22, §23, §24, §25, §26, §27, §28, §29, §30, §31, §32

[1] = system: HCT Bcl/xl, OVCAR-3, OVCAR-8, SKOV-3, 22RV1 cell lines; experiment: Ave. IC50 across cell lines; conditions: average across cell lines

| SMILES | IC50 (HCT116 Bcl/xl) | PALD (Percent Activity at Lowest Dose tested) HCT Bcl/xl (HCT116 Bcl/xl) | IC50 (SKOV-3) | PALD (Percent Activity at Lowest Dose tested) SKOV-3 (SKOV-3) | minimal effective concentration (MEC (+APH)) | PALD (Percent Activity at Lowest Dose tested) 22RV1 (22RV1) | IC50 (22RV1) | IC50 (OVCAR-3) | PALD (Percent Activity at Lowest Dose tested) OVCAR-3 (OVCAR-3) | IC50 (OVCAR-8) | PALD (Percent Activity at Lowest Dose tested) OVCAR-8 (OVCAR-8) | IC50 [1] |
| --- | --- | --- | --- | --- | --- | --- | --- | --- | --- | --- | --- | --- |
| CNCc1cccc2c1OCCCCCC[C@@](C)(O)CC(C)(C)S(=O)(=O)c1ccc(cc1)-c1cnc(N)c(n1)C(=O)N2 (single isomer, unassigned) [Compound A-2] | 2.29 nM | (91%) | 2.71 nM | (110%) | 2e-05 µM | (107%) | 3.44 nM | 0.753 nM | (101%) | 2.95 nM | (82%) | 2.42 nM |
| CC1(O)CCCCCCOc2c(CN)cccc2NC(=O)c2nc(cnc2N)-c2ccc(cc2)S(=O)(=O)C(C)(C)C1 (racemic) [Compound C, 5-amino-13-(aminomethyl)-22-hydroxy-22,24,24-trimethyl-25,25-dioxo-15-oxa-25λ^6-thia-4,8,31-triazatetracyclo[24.2.2.1^2,6.0^9,14]hentriaconta-1(28),2(31),3,5,9(14),10,12,26,29-nonaen-7-one] | 2.06 nM | (65%) | 1.08 nM | (100%) | 1e-05 µM | (90%) | 4.32 nM | 3.85 nM | (158%) | 6.8 nM | (73%) | 3.6 nM |
| CC1(C)C[C@@](C)(O)CCCCCCOc2c(CN)cccc2NC(=O)c2nc(cnc2N)-c2ccc(cc2)S1(=O)=O (single isomer, unassigned) [Compound C-1] | 4.53 nM | (72%) | – | – | 1e-05 µM | (107%) | 3.5 nM | 1.02 nM | (115%) | 3.63 nM | (83%) | 2.7 nM |
| CNCc1ccc(-c2cc(-c3nc(-c4ccc(S(=O)(=O)C(C)C)cc4)cnc3N)on2)cc1 [VE822, reference compound] | 62.1 nM | (105%) | 9.5 nM | (55%) | 0.0003 µM | (86%) | 84.9 nM | 11.5 nM | (79%) | 84.6 nM | (89%) | 50 nM |
| CC1(C)C[C@H](O)CCCCCCOc2c(CN)cccc2NC(=O)c2nc(cnc2N)-c2ccc(cc2)S1(=O)=O (single isomer, unassigned) [Compound H-2] | 6.43 nM | (89%) | – | – | 2e-05 µM | – | – | – | – | – | – | – |
| CN(C)Cc1cccc2c1OCCCCCCC(C)(O)CC1(CC1)S(=O)(=O)c1ccc(cc1)-c1cnc(N)c(n1)C(=O)N2 (stereo not drawn) [Compound F, 5-amino-13-[(dimethylamino)methyl]-22-hydroxy-22-methyl-25,25-dioxo-spiro[15-oxa-25λ^6-thia-4,8,31-triazatetracyclo[24.2.2.1^2,6.0^9,14]hentriaconta-1(28),2,4,6(31),9(14),10,12,26,29-nonaene-24,1′-cyclopropane]-7-one] | 14.1 nM | (104%) | – | – | 0.000156 µM | (96%) | 10.8 nM | 8.23 nM | (86%) | 31.5 nM | (81%) | – |
| CNCc1cccc2c1OCCCCCC[C@](C)(O)CC(C)(C)S(=O)(=O)c1ccc(cc1)-c1cnc(N)c(n1)C(=O)N2 (single isomer, unassigned) [Compound A-1] | 2.68 nM | (110%) | 2.85 nM | (81%) | 2e-05 µM | (121%) | 4.69 nM | 4.09 nM | (116%) | 2.16 nM | (91%) | 3.29 nM |
| CN(C)Cc1cccc2c1OCCCCCCC(O)CC(C)(C)S(=O)(=O)c1ccc(cc1)-c1cnc(N)c(n1)C(=O)N2 (stereo not drawn) [Compound G, 5-amino-13-[(dimethylamino)methyl]-22-hydroxy-24,24-dimethyl-25,25-dioxo-15-oxa-25λ^6-thia-4,8,31-triazatetracyclo[24.2.2.1^2,6.0^9,14]hentriaconta-1(28),2(31),3,5,9(14),10,12,26,29-nonaen-7-one] | 12.5 nM | (109%) | 2.64 nM | (97%) | 8e-05 µM | (104%) | 5.09 nM | 4.97 nM | (83%) | – | – | – |
| CNCc1cccc2c1OCCCCCC[C@H](O)CC(C)(C)S(=O)(=O)c1ccc(cc1)-c1cnc(N)c(n1)C(=O)N2 (single isomer, unassigned) [Compound G-1] | 7.77 nM | (115%) | – | – | 4e-05 µM | (111%) | 7.02 nM | – | – | 4.97 nM | (85%) | – |
| CC1(C)C[C@@H](O)CCCCCCOc2c(CN)cccc2NC(=O)c2nc(cnc2N)-c2ccc(cc2)S1(=O)=O (single isomer, unassigned) [Compound H-1] | 4.46 nM | (89%) | – | – | 4e-05 µM | (71%) | 7.84 nM | – | – | – | – | – |
| CN(C)Cc1cccc2c1OCCCCCCC(C)(O)CC(C)(C)S(=O)(=O)c1ccc(cc1)-c1cnc(N)c(n1)C(=O)N2 (stereo not drawn) [Compound E, 5-amino-13-[(dimethylamino)methyl]-22-hydroxy-22,24,24-trimethyl-25,25-dioxo-15-oxa-25λ^6-thia-4,8,31-triazatetracyclo[24.2.2.1^2,6.0^9,14]hentriaconta-1(28),2,4,6(31),9(14),10,12,26,29-nonaen-7-one] | 6.5 nM | (91%) | – | – | 8e-05 µM | (72%) | 3.28 nM | – | – | 6.47 nM | (139%) | – |
| CNCc1cccc2c1OCCCCCC[C@@H](O)CC(C)(C)S(=O)(=O)c1ccc(cc1)-c1cnc(N)c(n1)C(=O)N2 (single isomer, unassigned) [Compound G-2] | 7.9 nM | (83%) | 4.94 nM | (92%) | 4e-05 µM | (86%) | 8.57 nM | – | – | – | – | – |
